Assay results reported in the supplement of paper PMC11208160.

Test: recombinant UMI read abundance after kanamycin selection (control-corrected) (log10(CPM+1)); higher = more efficient recombination; extreme values may be limits of the assay; sequences stand for … in AGTGCAGAGAAAATCGGCCAGTTTTCTCTGCCTGCAGTCCGCATGCCGTGGGACCCCTTGGGTTCTAACCTGTTGCCTAGATTTATGCAGCGGACTGCCTTTCTCCCAAAGTGATAAACCGG…AGGTTGGTTTCACT; site = the 11-nt donor
Summary of the method: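 In Escherichia coli, a pool of donor and donor-binding-loop pairs, each with a 12-nt UMI, was tested for the IS621 bridge recombinase. Plating was on IPTG (0.07 mM) plus kanamycin, or without selection, in two replicates. Recombinant UMIs were amplified by PCR across the donor–target junction and sequenced, and counts were reported as log10(CPM+1) after averaging and control-derived scaling.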
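Also: IS621 bridge recombinase in Escherichia coli cells against a fixed T5 target plasmid.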

Row | Sequence | recombinant UMI read abundance (log10)
1 | CTATACACATGGACCGGTTTTCCCGGTAATCCGTATTTGCT (site CTGTACACTAG) | 0.705
2 | CGCCGTACATGGACCGGTTTTCCCGGTAATCCGTATTTGCT (site CGCCTTACTAG) | 0
3 | TCCAATGCATGGACCGGTTTTCCCGGTAATCCGTATTTGCC (site TCCAATGCTGG) | 0
4 | CGAGGACCATGGACCGGTTTTCCCGGTAATCCGTATTTGGA (site CGAGGACCTGC) | 0
5 | GACAAACCATGGACCGGTTTTCCCGGTAATCCGTATTTGGT (site GACAAGCCTAC) | 0.00399
6 | AGGTTTCCATGGACCGGTTTTCCCGGTAATCCGTATTTGTG (site AGGTTACCTCA) | 0.0337
7 | CCCCACACATGGACCGGTTTTCCCGGTAATCCGTATTTGTA (site CCCCCCACTTA) | 0.0246
8 | GTACGCACATGGACCGGTTTTCCCGGTAATCCGTATTTGTA (site GTAGGCACTTA) | 0.0167
9 | ATAAACTCATGGACCGGTTTTCCCGGTAATCCGTATTTGCG (site ATAAACTCTCG) | 3.23
10 | AGGAAGACATGGACCGGTTTTCCCGGTAATCCGTATTTGCT (site AGGAAGACTAG) | 2.25
11 | CTACTACCATGGACCGGTTTTCCCGGTAATCCGTATTTGCT (site CTGCTACCTAG) | 0.00524
12 | ATATGTCCATGGACCGGTTTTCCCGGTAATCCGTATTTGTC (site ATATGTCCTGA) | 0.623
13 | CACTCCTCATGGACCGGTTTTCCCGGTAATCCGTATTTGGC (site CACTCCTCTGG) | 0.943
14 | GCCTCTACATGGACCGGTTTTCCCGGTAATCCGTATTTGCC (site GCCTCTACTGG) | 1.37
15 | AGGGCACCATGGACCGGTTTTCCCGGTAATCCGTATTTGCA (site CGGGCACCTTG) | 0
16 | TGATGAGCATGGACCGGTTTTCCCGGTAATCCGTATTTGGG (site TAATGAGCTCC) | 0.0122
17 | GCGTTAGCATGGACCGGTTTTCCCGGTAATCCGTATTTGTG (site CCGTTAGCTCA) | 0.885
18 | CGTGTATCATGGACCGGTTTTCCCGGTAATCCGTATTTGAC (site CGTGTATCTGT) | 1.26
19 | AACCGTCCATGGACCGGTTTTCCCGGTAATCCGTATTTGAT (site ATCCGTCCTAT) | 0.00558

Row | Sequence | recombinant UMI read abundance (log10)
20 | CAGGAATCATGGACCGGTTTTCCCGGTAATCCGTATTTGCG (site AAGGAATCTCG) | 1.51
21 | GGAGTGGCATGGACCGGTTTTCCCGGTAATCCGTATTTGAT (site GGAGTGGCTAC) | 0.0174
22 | GGCCCCCCATGGACCGGTTTTCCCGGTAATCCGTATTTGTT (site GGCCGCCCTAA) | 0.0281
23 | CGATCATCATGGACCGGTTTTCCCGGTAATCCGTATTTGCT (site CGATCAACTAG) | 0
24 | AGCCTAGCATGGACCGGTTTTCCCGGTAATCCGTATTTGCT (site AGCCTAGCTAG) | 0.00934
25 | GCGTAAACATGGACCGGTTTTCCCGGTAATCCGTATTTGCT (site GCGTAAACTAG) | 2.73
26 | ATCTACCCATGGACCGGTTTTCCCGGTAATCCGTATTTGGC (site ATCTACCCTGC) | 0.584
27 | AGCACAGCATGGACCGGTTTTCCCGGTAATCCGTATTTGGG (site AGCACAGCTCC) | 0.0126
28 | CACGGCACATGGACCGGTTTTCCCGGTAATCCGTATTTGTT (site CACGGCCCTAA) | 0.00343
29 | GGTTCCCCATGGACCGGTTTTCCCGGTAATCCGTATTTGTA (site AGTTCCCCTTA) | 0.0122
30 | GCATACTCATGGACCGGTTTTCCCGGTAATCCGTATTTGCA (site ACATACTCTTG) | 2.41
31 | ACTAATGCATGGACCGGTTTTCCCGGTAATCCGTATTTGGT (site ACTAATGCTAC) | 1.88
32 | CCCGGTTCATGGACCGGTTTTCCCGGTAATCCGTATTTGCA (site CCCGGTGCTTG) | 0.0148
33 | CCCCTTACATGGACCGGTTTTCCCGGTAATCCGTATTTGGT (site CCCCTTACTAC) | 0.238
34 | CGGAATCCATGGACCGGTTTTCCCGGTAATCCGTATTTGTT (site CGCAATCCTAA) | 0.00384
35 | GCCGTATCATGGACCGGTTTTCCCGGTAATCCGTATTTGCA (site GCCGTATCTTG) | 2.22
36 | GGAGTGGCATGGACCGGTTTTCCCGGTAATCCGTATTTGAT (site GGAGTGGCTAA) | 0.00289
37 | ACTACAACATGGACCGGTTTTCCCGGTAATCCGTATTTGAG (site ACTATAACTCT) | 0.494
38 | CCCCGCACATGGACCGGTTTTCCCGGTAATCCGTATTTGTA (site CCCCTCACTTA) | 0.00635

Row | Sequence | recombinant UMI read abundance (log10)
39 | AACCGTCCATGGACCGGTTTTCCCGGTAATCCGTATTTGAT (site ACCCGTCCTAT) | 0
40 | CACCTCTCATGGACCGGTTTTCCCGGTAATCCGTATTTGCT (site CACCTCTCTAG) | 2.84
41 | CGATTCCCATGGACCGGTTTTCCCGGTAATCCGTATTTGCT (site CGATTCCCTAG) | 0.704
42 | ATTGCGACATGGACCGGTTTTCCCGGTAATCCGTATTTGGT (site ATTGTGACTAC) | 0.225
43 | CGGAATCCATGGACCGGTTTTCCCGGTAATCCGTATTTGTT (site CGGAAGCCTAT) | 0.00319
44 | CAATGCTCATGGACCGGTTTTCCCGGTAATCCGTATTTGTA (site CAATGCTCTTC) | 0.746
45 | CGGTAGACATGGACCGGTTTTCCCGGTAATCCGTATTTGAG (site CGTTAGACTCT) | 0.371
46 | CACTCCTCATGGACCGGTTTTCCCGGTAATCCGTATTTGCC (site CACTCCTCTGG) | 3.11
47 | CTGGTGGCATGGACCGGTTTTCCCGGTAATCCGTATTTGTT (site CTGGTGGCTAA) | 0.723
48 | GTCGAGGCATGGACCGGTTTTCCCGGTAATCCGTATTTGTG (site GTAGAGGCTCA) | 0.867
49 | CGGAATCCATGGACCGGTTTTCCCGGTAATCCGTATTTGTT (site CGGATTCCTAA) | 0.0126
50 | CGACTTGCATGGACCGGTTTTCCCGGTAATCCGTATTTGAT (site CGACTTGCTAT) | 2.39
51 | CCCGGCCCATGGACCGGTTTTCCCGGTAATCCGTATTTGCA (site CCCGGGCCTTG) | 0
52 | TAGACTTCATGGACCGGTTTTCCCGGTAATCCGTATTTGGT (site TAGACTTCTAC) | 1.64
53 | GAGCCCACATGGACCGGTTTTCCCGGTAATCCGTATTTGAT (site GAGCTCACTAT) | 0.00621
54 | TAGGAAACATGGACCGGTTTTCCCGGTAATCCGTATTTGCG (site TAGGAACCTCG) | 0
55 | TAGGGATCATGGACCGGTTTTCCCGGTAATCCGTATTTGCG (site TAGGTATCTCG) | 1.27
56 | ACTGATGCATGGACCGGTTTTCCCGGTAATCCGTATTTGGC (site ACTGATGCTGC) | 1.81
57 | CTATCATCATGGACCGGTTTTCCCGGTAATCCGTATTTGGT (site CTATCATCTAC) | 0.706
